# Biological target: GLP-1 Receptor (Homo sapiens, UniProt P43220)
# Test: GLP-1R agonist cAMP stimulation assay (HEK293/GLP1R/CRE-LUC cells, HTRF cAMP dynamic 2 kit)
# Assay type: cell-based
# Details: HEK293/CRE-Luc cell line stably expressing the GLP-1 Receptor; 30 min incubation at 37° C.
# Procedure: Activation of GLP-1 receptor is known to stimulate cyclic AMP (cAMP) production in cells which indicates primary coupling to the Gas subunit of the G protein heterotrimeric complex.
# To optimize functional activity directed toward Gas coupling, a HEK293/CRE-Luc cell line developed by HDB stably expressing the GLP-1 Receptor was used. 200× concentration of compound working solutions were prepared (Agilent Technologies Bravo) with 1/2 log serial dilution in 384-well Echo LDV plate (Labcyte, Cat #LP-0200). 50 nL/well 200× concentration of compound working solutions were moved to 384-well white low volume plate (Greiner, Cat #784075) using Labcyte ECHO550. 1×10^5 cells/mL HEK293/GLP1R/CRE-LUC (HD Biosciences) cell suspensions prepared with assay buffer [DPBS containing 0.5 mM IBMX (Sigma, Cat #15879) and 0.10% BSA (GENVIEW, Cat #FA016-100g)], 10 μL cell suspensions were added to each well of previous generated assay plate which already contains 50 nL compound at 200× concentration using ThermoFisher Multidrop Combi (1000 cells/well). Seal the plate and incubate at 37° C. with 5% CO2 for 30 min.
# After incubation the cAMP assay signal was generated using cAMP dynamic 2 Kit (Cisbio). 5 μL cAMP-d2 working solution was added to each well, followed with 5 μL Anti-cAMP antibody-cryptate working solution added to each well using ThermoFisher Multidrop Combi. Incubate at room temperature for 1 hour protected from light. Read the fluorescence at 665 and 615 nm with Reader PerkinElmer EnVision.
# GLP-1 Receptor, sequence (P43220 24-463): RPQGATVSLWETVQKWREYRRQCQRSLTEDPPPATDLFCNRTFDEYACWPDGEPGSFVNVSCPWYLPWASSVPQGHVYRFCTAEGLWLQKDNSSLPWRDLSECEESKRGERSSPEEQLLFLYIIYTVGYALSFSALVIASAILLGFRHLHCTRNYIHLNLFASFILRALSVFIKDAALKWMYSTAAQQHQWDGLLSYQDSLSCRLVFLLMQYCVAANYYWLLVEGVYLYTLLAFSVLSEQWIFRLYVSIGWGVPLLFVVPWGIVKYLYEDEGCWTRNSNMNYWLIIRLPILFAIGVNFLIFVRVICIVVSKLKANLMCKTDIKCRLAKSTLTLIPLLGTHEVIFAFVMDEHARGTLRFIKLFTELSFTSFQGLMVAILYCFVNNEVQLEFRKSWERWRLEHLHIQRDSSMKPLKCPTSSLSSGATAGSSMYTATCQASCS
row,SMILES,EC50 [nM]
1,"CNC(=O)c1ccc2c(nc(CN3CCc4cc(C(F)(F)F)c(OCc5ccc(Cl)cc5F)nc4C3)n2C[C@@H]2CCO2)c1F [Compound 22, 2-({2-[(4-chloro-2-fluorophenyl)methoxy]-3-(trifluoromethyl)-5,6,7,8-tetrahydro-1,7-naphthyridin-7-yl}methyl)-4-fluoro-N-methyl-1-{[(2S)-oxetan-2-yl]methyl}-1H-1,3-benzodiazole-5-carboxamide]",1 to 300
2,"N#Cc1nnc(-c2cc3nc(CN4CCc5cc(C(F)(F)F)c(NCc6ccc(Cl)cc6F)nc5C4)n(C[C@@H]4CCO4)c3cn2)[nH]1 [Compound 108, 5-{2-[(2-{[(4-chloro-2-fluorophenyl)methyl]amino}-3-(trifluoromethyl)-5,6,7,8-tetrahydro-1,7-naphthyridin-7-yl)methyl]-3-{[(2S)-oxetan-2-yl]methyl}-3H-imidazo[4,5-c]pyridin-6-yl}-4H-1,2,4-triazole-3-carbonitrile]",< 1
3,"NC(=O)c1nnc(-c2cc3nc(CN4CCc5cc(C(F)(F)F)c(OCc6c(F)cc(Cl)cc6F)nc5C4)n(C[C@@H]4CCO4)c3cn2)[nH]1 [Compound 44, 5-[2-({2-[(4-chloro-2,6-difluorophenyl)methoxy]-3-(trifluoromethyl)-5,6,7,8-tetrahydro-1,7-naphthyridin-7-yl}methyl)-3-{[(2S)-oxetan-2-yl]methyl}-3H-imidazo[4,5-c]pyridin-6-yl]-4H-1,2,4-triazole-3-carboxamide]",< 1
4,"CS(=O)(=O)NC(=O)c1ccc2c(c1)nc(CN1CCc3cc(C(F)(F)F)c(OCc4ccc(Cl)cc4F)nc3C1)n2C[C@@H]1CCO1 [Compound 93, 2-({2-[(4-chloro-2-fluorophenyl)methoxy]-3-(trifluoromethyl)-5,6,7,8-tetrahydro-1,7-naphthyridin-7-yl}methyl)-N-methanesulfonyl-1-{[(2S)-oxetan-2-yl]methyl}-1H-1,3-benzodiazole-5-carboxamide]",< 1
5,"CC(c1nc2cc(-c3nnc(C(F)(F)F)[nH]3)ncc2n1C[C@@H]1CCO1)N1CCc2cc(C(F)(F)F)c(OCc3c(F)cc(Cl)cc3F)nc2C1 (stereo partly drawn) [Compound 83, 2-[(4-chloro-2,6-difluorophenyl)methoxy]-7-[1-(3-{1[(2S)-oxetan-2-yl]methyl}-6-[5-(trifluoromethyl)-4H-1,2,4-triazol-3-yl]-3H-imidazo[4,5-c]pyridin-2-yl)ethyl]-3-(trifluoromethyl)-5,6,7,8-tetrahydro-1,7-naphthyridine]",< 1
6,"Cc1cc2c(nc1OCc1c(F)cc(Cl)cc1F)CN(Cc1nc3cc(-c4nnc(C#N)[nH]4)ncc3n1C[C@@H]1CCO1)CC2 [Compound 40, 5-[2-({2-[(4-chloro-2,6-difluorophenyl)methoxy]-3-methyl-5,6,7,8-tetrahydro-1,7-naphthyridin-7-yl}methyl)-3-{[(2S)-oxetan-2-yl]methyl}-3H-imidazo[4,5-c]pyridin-6-yl]-4H-1,2,4-triazole-3-carbonitrile]",< 1
7,"Cc1nnc(-c2cnc3c(c2)nc(CN2CCc4cc(C(F)(F)F)c(OCc5ccc(Cl)cc5F)nc4C2)n3C[C@@H]2CCO2)[nH]1 [Compound 67, 2-[(4-chloro-2-fluorophenyl)methoxy]-7-{[6-(5-methyl-4H-1,2,4-triazol-3-yl)-3-{[(2S)-oxetan-2-yl]methyl}-3H-imidazo[4,5-b]pyridin-2-yl]methyl}-3-(trifluoromethyl)-5,6,7,8-tetrahydro-1,7-naphthyridine]",1 to 300
8,"O=c1[nH]c(-c2ccc3c(nc(CN4CCc5cc(C(F)(F)F)c(OCc6ccc(Cl)cc6F)nc5C4)n3C[C@@H]3CCO3)c2F)no1 [Compound 47, 3-[2-({2-[(4-chloro-2-fluorophenyl)methoxy]-3-(trifluoromethyl)-5,6,7,8-tetrahydro-1,7-naphthyridin-7-yl}methyl)-4-fluoro-1-{[(2S)-oxetan-2-yl]methyl}-1H-1,3-benzodiazol-5-yl]-4,5-dihydro-1,2,4-oxadiazol-5-one]",< 1
9,"Fc1cc(Cl)ccc1COc1nc2c(cc1C(F)(F)F)CCN(Cc1nc3cc(-c4nnc(C(F)(F)F)[nH]4)cnc3n1C[C@@H]1CCO1)C2 [Compound 16, 2-[(4-chloro-2-fluorophenyl)methoxy]-7-[(3-{[(2S)-oxetan-2-yl]methyl}-6-[5-(trifluoromethyl)-4H-1,2,4-triazol-3-yl]-3H-imidazo[4,5-b]pyridin-2-yl)methyl]-3-(trifluoromethyl)-5,6,7,8-tetrahydro-1,7-naphthyridine]",< 1
10,"Cc1nnc(-c2cc3c(nc(CN4CCc5cc(C(F)(F)F)c(OCc6ccc(Cl)cc6F)nc5C4)n3C[C@@H]3CCO3)s2)[nH]1 [Compound 60, 2-[(4-chloro-2-fluorophenyl)methoxy]-7-{[5-(5-methyl-4H-1,2,4-triazol-3-yl)-1-{[(2S)-oxetan-2-yl]methyl}-1H-thieno[2,3-d]imidazol-2-yl]methyl}-3-(trifluoromethyl)-5,6,7,8-tetrahydro-1,7-naphthyridine]",1 to 300
11,"O=C(O)c1cc2nc(CN3CCc4cc(C(F)(F)F)c(OCc5ccc(Cl)cc5F)nc4C3)n(C[C@@H]3CCO3)c2cn1 [Compound 26, 2-({2-[(4-chloro-2-fluorophenyl)methoxy]-3-(trifluoromethyl)-5,6,7,8-tetrahydro-1,7-naphthyridin-7-yl}methyl)-3-{[(2S)-oxetan-2-yl]methyl}-3H-imidazo[4,5-c]pyridine-6-carboxylic acid]",< 1
12,"Fc1cc(Cl)ccc1COc1nc2c(cc1Cl)CCN(Cc1nc3cc(-c4nnc(C(F)(F)F)[nH]4)nnc3n1C[C@@H]1CCO1)C2 [Compound 7, 3-chloro-2-[(4-chloro-2-fluorophenyl)methoxy]-7-[(7-{[(2S)-oxetan-2-yl]methyl}-3-[5-(trifluoromethyl)-4H-1,2,4-triazol-3-yl]-7H-imidazo[4,5-c]pyridazin-6-yl)methyl]-5,6,7,8-tetrahydro-1,7-naphthyridine]",< 1
13,"O=c1[nH]c(-c2cnc3c(c2)nc(CN2CCc4ccc(OCc5ccc(Cl)cc5F)nc4C2)n3C[C@@H]2CCO2)no1 [Compound 1, (S)-3-(2-((2-((4-chloro-2-fluorobenzyl)oxy)-5,8-dihydro-1,7-naphthyridin-7(6H)-yl)methyl)-3-(oxetan-2-ylmethyl)-3H-imidazo[4,5-b]pyridin-6-yl)-1,2,4-oxadiazol-5(4H)-one]",1 to 300
14,"O=c1[nH]c(-c2ccc3c(nc(CN4CCc5cc(C(F)(F)F)c(OCc6ccc(Cl)cc6)nc5C4)n3C[C@@H]3CCO3)c2F)no1 [Compound 46, 3-[2-({2-[(4-chlorophenyl)methoxy]-3-(trifluoromethyl)-5,6,7,8-tetrahydro-1,7-naphthyridin-7-yl}methyl)-4-fluoro-1-{[(2S)-oxetan-2-yl]methyl}-1H-1,3-benzodiazol-5-yl]-4,5-dihydro-1,2,4-oxadiazol-5-one]",< 1
15,"FC(F)(F)c1nnc(-c2cc3nc(CN4CCc5cc(C(F)(F)F)c(OCc6ccc(Cl)cc6)nc5C4)n(C[C@@H]4CCO4)c3cn2)[nH]1 [Compound 54, 2-[(4-chlorophenyl)methoxy]-7-[(3-{1[(2S)-oxetan-2-yl]methyl}-6-[5-(trifluoromethyl)-4H-1,2,4-triazol-3-yl]-3H-imidazo[4,5-c]pyridin-2-yl)methyl]-3-(trifluoromethyl)-5,6,7,8-tetrahydro-1,7-naphthyridine]",< 1
16,"Cc1cc2c(nc1OCc1c(F)cc(Cl)cc1F)CN(Cc1nc3cc(-c4nnn[nH]4)ncc3n1C[C@@H]1CCO1)CC2 [Compound 91, 2-[(4-chloro-2,6-difluorophenyl)methoxy]-3-methyl-7-[(3-{[(2S)-oxetan-2-yl]methyl}-6-(1H-1,2,3,4-tetrazol-5-yl)-3H-imidazo[4,5-c]pyridin-2-yl)methyl]-5,6,7,8-tetrahydro-1,7-naphthyridine]",< 1
17,"Cc1cc(-c2nnc(C(F)(F)F)[nH]2)cnc1CN1CCc2cc(Cl)c(OCc3ccc(Cl)cc3F)nc2C1 [Compound 12, 3-chloro-2-[(4-chloro-2-fluorophenyl)methoxy]-7-({3-methyl-5-[5-(trifluoromethyl)-4H-1,2,4-triazol-3-yl]pyridin-2-yl}methyl)-5,6,7,8-tetrahydro-1,7-naphthyridine]",> 300
18,"Cc1cc2c(nc1OCc1c(F)cc(Cl)cc1F)CN(Cc1nc3cc(-c4nnc(C(F)(F)F)[nH]4)ncc3n1C[C@@H]1CCO1)CC2 [Compound 55, 2-[(4-chloro-2,6-difluorophenyl)methoxy]-3-methyl-7-[(3-{1[(2S)-oxetan-2-yl]methyl}-6-[5-(trifluoromethyl)-4H-1,2,4-triazol-3-yl]-3H-imidazo[4,5-c]pyridin-2-yl)methyl]-5,6,7,8-tetrahydro-1,7-naphthyridine]",< 1
19,"Fc1cc(Cl)ccc1COc1nc2c(cc1C(F)(F)F)CCN(Cc1nc3cc(-c4nnn[nH]4)cnc3n1C[C@@H]1CCO1)C2 [Compound 15, 2-[(4-chloro-2-fluorophenyl)methoxy]-7-[(3-{[(2S)-oxetan-2-yl]methyl}-6-(1H-1,2,3,4-tetrazol-5-yl)-3H-imidazo[4,5-b]pyridin-2-yl)methyl]-3-(trifluoromethyl)-5,6,7,8-tetrahydro-1,7-naphthyridine]",< 1

# Source: US20250206757A1 (GASHERBRUM BIO, INC., priority 2022, published 2025)
